Test results: PMC6896740, “Safety, tolerability, pharmacokinetics, and pharmacodynamics of PF-06650833, a selective interleukin-1 receptor-associated kinase 4 (IRAK4) inhibitor, in single and multiple ascending dose randomized phase 1 studies in healthy subjects” (Arthritis Research & Therapy, 2019)

Columns and labels:
[1] = design: method as in PMID 28498658; conditions: cited from earlier work
healthy adult subjects = assay: Study 2 (MAD) safety and tolerability: TEAEs, urine crystals; type: in vivo
Method: Study 2 (B7921002; NCT02485769) was a 14-day, phase 1, randomized, double-blind, sponsor-open, placebo-controlled, sequential group, MAD study in healthy adult subjects (Fig. 1b).
Subjects were enrolled sequentially into seven cohorts. Within each cohort, eight subjects and two subjects were randomized to receive PF-06650833 and placebo, respectively. Doses for all cohorts were administered after a standard (not high-fat) meal. Multiple dosing regimens (once daily [QD] 24 h apart, twice daily [BID] 12 h apart, three times per day [TID] 8 h apart, and four times per day [QID] 6 h apart) were used to provide required total daily doses. In the final dosing scheme, multiple oral doses of PF-06650833 IR suspension formulations at 25, 100, 250, and 750 mg BID and 1000 mg QID were administered in cohorts 1–5. PF-06650833 IR 330 mg TID (cohort 6) and an MR tablet at a dose of 300 mg QD (cohort 7) were also evaluated (see Fig. 1b for final dosing scheme).
Dose escalation (cohorts 1–5) or dose selection (cohorts 6–8) was based upon the evaluation of ≥ 7 days of safety and tolerability for all subjects and ≥ 12 h of PK data for at least six subjects receiving PF-06650833. To establish an MTD, dose escalation was to cease when the limit of tolerability was achieved.
Safety assessments included incidence and severity of treatment-emergent AEs (TEAEs) and discontinuation due to TEAEs, incidence of treatment-emergent clinical laboratory abnormalities, and proportion of subjects meeting with pre-defined criteria for potential clinical concern in vital signs and electrocardiogram (ECG) parameters.
The safety analysis set was defined as all subjects who received at least one dose of study treatment, and data were summarized descriptively. The PK concentration analysis set was defined as all enrolled, treated subjects who had at least one concentration in at least one treatment period. The PK parameter analysis set was defined as all enrolled, treated subjects who had at least one of the PK parameters of interest in at least one treatment period. The PD analysis set was defined as all enrolled subjects who received at least one dose of PF-06650833 and had at least one PD parameter. PK/PD data were summarized descriptively.
PK parameters were calculated using non-compartmental analysis of concentration-time data. For study 1 only, data from cohort 1 (period 4 [IR 30 mg] versus period 5 [IR 30 mg + food]) and cohort 3 (period 2 [MR 30 mg] versus period 3 [MR 30 mg + food]) were used to estimate the effect of food intake. Cmax and AUC were calculated for each subject and treatment, with and without food, after which a within-subject difference could be found between fed (high-fat meal) and fasted doses. Analysis of covariance was used to model these within-subject differences and to calculate 95% confidence intervals (CIs) for the differences for each dose (IR 30 mg and MR 30 mg). For study 2 only, the amounts of PF-06650833 in urine and renal clearance were listed and summarized descriptively. As part of the routine safety laboratory monitoring, the presence of any atypical crystals in urine specimens was semi-quantitatively assessed microscopically by typical histopathologic methods and scored as numbers of crystals per high power field (hpf); higher abundance (moderate or many) was defined as ≥ 15/hpf. No formal interim analyses were conducted.

[2] = tested on: high-sensitivity C-reactive protein (hsCRP); assay: Study 2 (MAD) serum hsCRP pharmacodynamics; type: in vivo, human
Source text: The primary objective of study 2 was to determine the safety and tolerability of MAD of orally administered IR and MR formulations of PF-06650833 after a standard meal in healthy adult subjects. The secondary objective was to evaluate the plasma and urine PK profiles of PF-06650833 after repeat dosing. Exploratory objectives were to assess the effects of PF-06650833 on exploratory biomarkers of PD activity, including high-sensitivity C-reactive protein (hsCRP), and to evaluate cholesterol/hydroxycholesterol ratios as an endogenous marker for cytochrome P450 3A (CYP3A) induction or inhibition.
For both studies, samples of blood (and urine in study 2) were taken for evaluation of PK/PD parameters (see Additional file 1: Supplemental Methods). PK samples were obtained at the nominal time relative to dosing (± 10%). Plasma and urine samples were analyzed using validated, sensitive, and specific liquid chromatography tandem mass spectrometric methods (at Pfizer Inc., Groton, CT, USA, for study 1 and at Worldwide Pharmacokinetics, Dynamics and Metabolism, Cambridge, MA, USA, for study 2). The lower limit of quantification for PF-06650833 in plasma was 0.0500 ng/mL. The lower limit of quantification for PF-06650833 in urine was 1.00 ng/mL. Serum samples were also analyzed for hsCRP, and plasma samples were analyzed for 4β-hydroxycholesterol and cholesterol.
The safety analysis set was defined as all subjects who received at least one dose of study treatment, and data were summarized descriptively. The PK concentration analysis set was defined as all enrolled, treated subjects who had at least one concentration in at least one treatment period. […]
35 Plasma samples were analyzed using a validated, sensitive , and specific liquid […]
38 MA, USA for Study 2). The lower limit of quantification (LLOQ) for PF-06650833 in plasma
39 was 0.0500 ng/mL. Between-day assay accuracy values were also calculated (not shown). […]
44 cohorts. Urine samples were also analyzed using a validated, sensitive , and specific LC-MS […]

[3] = IR 100 mg BID, 14 days, fed, 8 evaluable

SMILES: CC[C@@H]1[C@H](F)C(=O)N[C@@H]1COc1nccc2cc(C(N)=O)c(OC)cc12 [PF-06650833, 1-{[(2S,3S,4S)-3-Ethyl-4-fluoro-5-oxopyrrolidin-2-yl]methoxy}-7-methoxyisoquinoline-6-carboxamide]
- Permeability [1]: high-permeability compound
- Infections and infestations: subjects with AE, all causalities (treatment-related) (healthy adult subjects; [3]): 1 (0)
- Upper respiratory tract infection: subjects with AE, all causalities (treatment-related) (healthy adult subjects; [3]): 1 (0)
- Nasal congestion: subjects with AE, all causalities (treatment-related) (healthy adult subjects; IR 330 mg TID, 14 days, fed, 8 evaluable): 1 (1)
- Infections and infestations: subjects with AE, all causalities (treatment-related) (healthy adult subjects; IR 750 mg BID, 14 days, fed, 8 evaluable): 1 (1)
- Infections and infestations: subjects with AE, all causalities (treatment-related) (healthy adult subjects; MR 300 mg QD, 14 days, fed, 8 evaluable): 1 (0)
- Serious AEs or deaths (healthy adult subjects; all dose groups): No serious AEs or deaths
- Severity of TEAEs (healthy adult subjects; in vivo): mild or moderate
- Maximum tolerated dose (healthy adult subjects; multiple doses up to IR 1000 mg QID, MR 300 mg QD): not established
- Day by which maximal hsCRP reduction was reached ([2]; IR ≥ 250 mg BID and MR 300 mg QD): ≤ 7 days
- Change from baseline in serum hsCRP ([2]; IR ≥ 250 mg BID and MR 300 mg QD, multiple dosing): sustained decrease
- Reduction from baseline in hsCRP (geometric mean percentage) ([2]; day 14, highest dose groups): 60–70%
